Experiment [1] deals with GP1 (DNA, aptamer) GGAGGCTCTCGGGACGACGGGAGCATCATTCTGAGTGTTATGTGGATTGATACGTCTGGTCGTCCCGATGCTGCAATCGTAA
Briefly: structure-switching fluorescence titration. The settings on record: 500 mM NaCl, 10 mM MgCl2, 5 mM KCl; 20 mM HEPES pH 7.4, room temperature; dabcyl-cDNA displaced; ligand stocks up to 200 mM.

The subject of experiment [2] is GP2 (DNA, aptamer) GGAGGCTCTCGGGACGACGGTGTGGCCCGTGGTGTCACTAATGAAGGGATTCATTTCAGTCGTCCCGATGCTGCAATCGTAA
In words: structure-switching fluorescence titration. The settings on record: 500 mM NaCl, 10 mM MgCl2, 5 mM KCl; 20 mM HEPES pH 7.4, room temperature; dabcyl-cDNA displaced; ligand stocks up to 200 mM.

The test system of experiment [3] is GP1 (DNA, aptamer) GGAGGCTCTCGGGACGACGGGAGCATCATTCTGAGTGTTATGTGGATTGATACGTCTGGTCGTCCCGATGCTGCAATCGTAA
Briefly: structure-switching fluorescence titration, Kd = Kd,eff1/Kd,eff2. Conditions: 500 mM NaCl, 10 mM MgCl2, 5 mM KCl; 20 mM HEPES pH 7.4, ~23 °C; dabcyl-cDNA displaced (sequence not in text); 50 nM each strand.

For experiment [4], the system named is GP2 (DNA, aptamer) GGAGGCTCTCGGGACGACGGTGTGGCCCGTGGTGTCACTAATGAAGGGATTCATTTCAGTCGTCCCGATGCTGCAATCGTAA
The description is as above. Conditions: 500 mM NaCl, 10 mM MgCl2, 5 mM KCl; 20 mM HEPES pH 7.4, ~23 °C; dabcyl-cDNA displaced (sequence not in text); 50 nM each strand.

In the case of `COC(=O)C1=CO[C@@H](O)[C@@H]2C(CO)=CC[C@H]12`, the binding entry in experiment [1] and in experiment [2] was “no” each time.

As for `COC(=O)C1=CO[C@@H](O[C@@H]2O[C@H](CO)[C@@H](O)[C@H](O)[C@H]2O)[C@@H]2C(CO)=CC[C@H]12`, the Kd in experiment [3] is recorded as ~ 6.1 μM; in experiment [4], ~ 2.0 μM.

With `OC[C@H]1OC(O)[C@H](O)[C@@H](O)[C@@H]1O` (stereo partly drawn), the binding entry in experiment [1] and in experiment [2] was “no” throughout.

The record behind these values is publication PMC6155188 (2017).
